In patent publication US7201899B2, “Materials and methods for management of hyperacute rejection in human xenotransplantation” (BresaGen Limited, priority 1994, dated 2007):

Experiments:
[1] = tested on: PK-1 and PAE's cells; experiment: Antibody staining and FACS analysis of porcine cells; type: binding; settings: for inhibition of anti-GAL IgM and/or IgG staining of porcine cells by sugar: anti-GAL antibodies pre-incubated with sugar (0.1 M) at 37° C. for 30 min
Procedure: C. Antibody Staining and FACS Analysis • 1) Add 2 ml TED to a 75 cm^2 culture flask containing PK-1 or PAE'S, and incubate at room temperature for 10 min. • 2) Add RPMI plus 10% FCS (5 ml) to neutralize trypsin. • 3) Pellet cells by centrifugation (700 g, 5 min, • 4) Wash cells by resuspension and centrifugation in Hanks Buffer (×2). • 5) Pellet cells by centrifugation (700 g, 5 min, 4° C.). • 6) Resuspend cell pellet in Hanks buffer containing purified anti-GAL antibodies, GAL-depleted serum or GAL-depleted IgG and incubate at 4° C. for 60 min. All antibodies were used undiluted, or diluted 1:2 or 1:4 in Hanks buffer. • 7) Add 1 ml of Hanks Buffer, pellet cells by centrifugation and aspirate off supernatant. • 8) Resuspend pellet in FITC-labelled sheep-anti-human IgG Fab2 or IgM Fab2 (Silenus, Hawthorn, Australia) diluted 1:80 in Hanks buffer. • 9) Incubate for 30 min. at 4° C. • 10) Wash three times with Hanks buffer; resuspend pellet from final wash in 0.5 ml Hanks buffer. • 11) Analyze stained samples using a FACScan II (Becton Dickinson) according to the manufacturer's instructions.
The specificity of the anti-GAL antibody binding to porcine cells was determined by examining the ability of sugars of various structures to inhibit antibody binding. In these competition studies the anti-GAL antibodies were pre-incubated with sugar (0.1 M) at 37° C. for 30 min before adding to the cells.

[2] = tested on: pig RBC; experiment: Hemagglutination of pig RBC by human serum: sugar inhibition; type: cell-based; settings: for Inhibitory Concentration: inhibition of pig RBC hemagglutination by pooled human AB serum; for concentration range inhibiting agglutination (in words): pig RBC agglutination by human serum
Procedure: The methods used to investigate the hemagglutination of pig red blood cells (RBC's) by human serum was adapted from the methods described by Galili, J. Exp. Med. 160: 1579–81 (1984) and Severson, Immunol. 96: 785–789 (1966).
A. Media/Solution Preparation • 1. Human Serum Albumin (HSA) (CSL, Melbourne, Australia) (5 mg/ml) was dissolved in PBS, filter sterilized, and stored at 4° C. • 2. Preparation of sugars: • 1 M stock solutions of sugar were prepared by dissolving the amount indicated in 100 ml of PBS. Sodium azide was added (0.02%) and solutions stored at 4° C.
B. Preparation of Pig RBC'S • 1. Heparinised pig blood (Animal Resources, Clayton, Australia) is centrifuged at 800 RPM for 10 min to pellet the RBC. • 2. The RBC pellet is washed by resuspension in PBS (10 ml) and recentrifugation (repeated 3 times). After the final wash, the RBC pellet is resuspended in 10 ml PBS. • 3. A 0.5% solution of RBC's is prepared by adding 50 ul RBC solution (from step 2, above) to 10 ml PBS containing 0.5 g/100 ml of HSA.
C. Preparation of 96-well Microtitre Plates (Titretek. USA) • 1. Add 25 ul of PBS to each well. • 2. Add 25 ul of pooled human AB serum (CSL, Melbourne, Australia) to column 1 and serially dilute by removing 25 ul from column 1 and adding to column 2, then repeating by sequentially removing and adding 25 ul from and to each well across the plate, finally discarding 25 μl from column 11 and adding no serum to column 12. • 3. Add 25 ul of sugar solution to each row in decreasing concentrations down rows. No sugar solution is added to the final row. • 4. Incubate at 4° C. overnight and then at 37° C. for 30 min. • 5. Add 50 ul of 0.5% pig RBC to each well; vortex and incubate at room temperature for 2 hours. Determine agglutination visually. II. Results

[3] = tested on: pig kidney, heart and liver sections; experiment: Immunostaining of pig tissues with anti-GAL antibodies; type: binding; settings: pig renal cortex sections, proximal tubule brush borders; sugar 0.1 M
Procedure: Pig kidney was fixed in formalin and dehydrated before embedding in Paraplast. Pig heart and liver were fixed in paraformaldehyde-lysine-periodate fixative and snap frozen in O.C.T. embedding compound (10.24% w/w polyvinyl alcohol, 4.26% w/w polyethylene glycol, 85.50% w/w nonreactive ingredients; Tissue Tek®, Miles, Inc., Elkhart, Ind., USA). Four μm-thick sections of pig heart and liver and 2 μm-thick sections of kidney were incubated with purified anti-GAL antibodies (undiluted, 1:2 and 1:4) for 60 min. and then incubated with a fluorescein isothiocyanate (FITC)-conjugated sheep anti-human immunoglobulin F(ab′) fragment. (Silenus Laboratories, Hawthorn, Australia) (1:100) for 30 min. or a peroxidase-conjugated rabbit anti-human IgG (Dakopatts, Glostrup, Denmark) (1:50) for 60 min. Control sections were analyzed for autofluorescence, with the secondary antibody alone, or with the anti-GAL-depleted IgG or normal pig serum as the primary antibody. […] The specificity of the anti-GAL antibodies was tested by pre-incubating sections of pig renal cortex with a variety of sugars, including melibiose, lactose, sucrose and glucose at 0.1 M.

Structure (SMILES) | inhibition of anti-GAL IgM and/or IgG staining of porcine cells by sugar [1] | decrease of anti-GAL antibody staining of PAE's (FIG. 1) ([1]; anti-GAL antibody pre-incubated with sugar, versus anti-GAL antibody alone) | Inhibitory Concentration [2] | concentration range inhibiting agglutination (in words) [2] | inhibition of anti-GAL antibody binding to pig tissue by sugar [3]
O=C[C@H](O)[C@@H](O)[C@@H](O)[C@H](O)CO [Galactose, D(+)galactose] | inhibited | approximately 10 fold less | 0.002 M | μM to mM range | 
OC[C@H]1O[C@H](OC[C@H]2O[C@H](OC[C@H]3O[C@H](O[C@]4(CO)O[C@H](CO)[C@@H](O)[C@@H]4O)[C@H](O)[C@@H](O)[C@@H]3O)[C@H](O)[C@@H](O)[C@H]2O)[C@H](O)[C@@H](O)[C@H]1O [Stachyose, α-D-gal-[1->6]-α-D-Glc-[1->2]-β-D-Fru] | inhibited |  | 0.002 M | μM to mM range | 
OC[C@H]1O[C@@](CO)(O[C@H]2O[C@H](CO)[C@@H](O)[C@H](O)[C@H]2O)[C@@H](O)[C@@H]1O [Sucrose, α-D-Glucopyranosyl β-D-fructofuranoside] |  |  | >10^−1M | only inhibitory when very high concentrations were used | not inhibited
